Tests used:
alkaline phosphatase [1] = experiment: Residual alkaline phosphatase activity after storage as solution at room temperature (Test Example 1); format: biochemical, calf; conditions: for effective as a stabilizer for alkaline phosphatase: overall conclusion from Test Examples 1-4; for Residual activity: sugar 50 mM, solution, room temperature (25° C.), 24 hours
Procedure: A sample solution (unsupplemented) was prepared by diluting alkaline phosphatase (derived from calf small intestine, Boehringer Mannheim Biochemica) with distilled water. Other sample solutions were prepared by adding, to the above solution, trehalose, maltose, glucosyl (α, 1-1)D-fucose or glucosyl (α, 1-4)L-fucose to the concentration of 50 mM. The sample solutions were allowed to stand at room temperature (25° C.) for 24 hours, and the activity of alkaline phosphatase in each of the sample solutions was determined.
The activity of alkaline phosphatase was determined as follows.
(§1) Each of the sample solutions (10 μl) was incubated at 37° C. in 2.0 ml of the reaction mixture consisting of 1M diethanol-amine buffer (pH 10.2), 0.2 mM magnesium chloride and 5 mM p-nitrophenyl phosphoric acid. Then, the enzyme activity was determined by the amount of p-nitrophenol produced therein, which was culculated on the basis of change in absorbance at 405 nm. The activity of each of the sample solutions immediately after the preparation was defined as 100%, and the residual activity in the stored sample solution was calculated.

alkaline phosphatase [2] = experiment: Residual alkaline phosphatase activity after storage in frozen form (Test Example 2); format: biochemical, calf; conditions: sugar 50 mM; stored frozen at -20° C. for 6 days
Procedure: as §1
(§2) A sample solution (unsupplemented) was prepared by diluting alkaline phosphatase with distilled water. Other sample solutions were prepared by adding, to the above solution, trehalose, maltose, glucosyl (α, 1-1)D-fucose or glucosyl (α, 1-4)L-fucose to the concentration of 50 mM. The sample solutions were stored in frozen form at -20° C. for 6 days. After thawing at room temperature, the activity of alkaline phosphatase in each of the sample solutions was determined in a manner similar to that employed in Test Example 1. The activity of each of the sample solutions immediately after preparation was defined as 100%, and the residual activity in the stored sample solution was calculated.

alkaline phosphatase [3] = experiment: Residual alkaline phosphatase activity after repeated freezing and thawing (Test Example 3); format: biochemical, calf; conditions: sugar 50 mM; frozen (dry ice/ethanol) and thawed 10 times
Procedure: as §1
as §2, with “mM. Each of the” for “mM. The”, “solutions was” for “solutions were stored in”, “frozen by dry ice/ethanol and thawed” for “frozen form at -20° C. for 6 days. After thawing”, “room temperature repeatedly 10 times in total. The” for “room temperature, the”, “after the” for “after”, “the frozen and thawed” for “the stored”

alkaline phosphatase [4] = experiment: Residual alkaline phosphatase activity after storage as dried powder (Test Example 4); format: biochemical, calf; conditions: sugar 50 mM; dry powder stored at 50° C. for 24 hours
Procedure: as §1
A sample solution (unsupplemented) was prepared by diluting alkaline phosphatase with distilled water. Other sample solutions were prepared by adding, to the above solution, trehalose, maltose, glucosyl (α, 1-1)D-fucose or glucosyl (α, 1-4)L-fucose to the concentration of 50 mM. Each of the sample solutions was evaporated at room temperature to dryness using a vacuum pump to obtain dry powder, and the dry powder was stored at 50° C. for 24 hours. The activity of alkaline phosphatase in each of the sample solutions was determined in a manner similar to that employed in Test Example 1. The activity of each of the sample solutions immediately after preparation was defined as 100%, and the residual activity in the stored sample solution was calculated.

[5] = C. Colaco et al., Bio/Technology, 10, 1007-1011 (1992); cited from earlier work

Compound	effective as a stabilizer for alkaline phosphatase (alkaline phosphatase [1])	Residual activity (alkaline phosphatase [1])	Residual activity (alkaline phosphatase [2])	Residual activity (alkaline phosphatase [3])	Residual activity (alkaline phosphatase [4])	enhance the stability of biopolymers such as enzyme proteins [5]
C[C@H]1O[C@H](O[C@H]2O[C@H](CO)[C@@H](O)[C@H](O)[C@H]2O)[C@H](O)[C@@H](O)[C@H]1O [Glucosyl (α, 1-1) D-fucose, glucosyl (α, 1-1)D-fucose]	effective as a stabilizer for alkaline phosphatase	21.8%	36.3%	65.0%	62.5%	
C[C@@H]1OC(O)[C@@H](O)[C@H](O)[C@@H]1O[C@H]1O[C@H](CO)[C@@H](O)[C@H](O)[C@H]1O (stereo partly drawn) [Glucosyl (α, 1-4) L-fucose, glucosyl (α, 1-4)L-fucose]	effective as a stabilizer for alkaline phosphatase	93.7%	76.0%	106.0%	83.0%	
OC[C@H]1O[C@H](O[C@H]2[C@H](O)[C@@H](O)[C@H](O)O[C@@H]2CO)[C@H](O)[C@@H](O)[C@@H]1O [Maltose, glucosyl(α,1-4)D-glucose]	effective as a stabilizer for alkaline phosphatase	3.3%	20.0%	16.3%	41.0%	
OC[C@H]1O[C@H](O[C@H]2O[C@H](CO)[C@@H](O)[C@H](O)[C@H]2O)[C@H](O)[C@@H](O)[C@@H]1O [Trehalose, glucosyl(α,1-1)D-glucose]	effective as a stabilizer for alkaline phosphatase	9.4%	26.4%	21.6%	55.0%	enhance the stability of biopolymers such as enzyme proteins

— US5776739A, “Process for producing disaccharides and novel disaccharides” (Kyowa Hakko Kogyo Co., Ltd., priority 1919, dated 1998)
